Measurements from PMC4076210, “Discovery of Novel AKT Inhibitors with Enhanced Anti-Tumor Effects in Combination with the MEK Inhibitor” (PLoS ONE, 2014).
Like-named read-outs stand apart in the source and are kept apart here.

How the values were obtained:
Type in all cases: biochemical
CK1γ1(h) = target: T1, CK1γ1(h) (Homo sapiens, UniProt Q9HCP0); assay: Kinase panel
T1 construct: purchased Millipore KinaseProfiler

FGFR2(h) = target: T2, FGFR2(h) (Homo sapiens, UniProt P21802); assay: Kinase panel
T2 construct: purchased Millipore KinaseProfiler

Flt1(h) = target: T3, Flt1(h) (Homo sapiens, UniProt P17948); assay: Kinase panel
T3 construct: purchased Millipore KinaseProfiler

Flt3(D835Y)(h) = target: T4, Flt3(D835Y)(h) (Homo sapiens, UniProt P36888, D835Y); assay: Kinase panel
T4 construct: purchased Millipore KinaseProfiler
T4 sequence (P36888 27-993 D835Y): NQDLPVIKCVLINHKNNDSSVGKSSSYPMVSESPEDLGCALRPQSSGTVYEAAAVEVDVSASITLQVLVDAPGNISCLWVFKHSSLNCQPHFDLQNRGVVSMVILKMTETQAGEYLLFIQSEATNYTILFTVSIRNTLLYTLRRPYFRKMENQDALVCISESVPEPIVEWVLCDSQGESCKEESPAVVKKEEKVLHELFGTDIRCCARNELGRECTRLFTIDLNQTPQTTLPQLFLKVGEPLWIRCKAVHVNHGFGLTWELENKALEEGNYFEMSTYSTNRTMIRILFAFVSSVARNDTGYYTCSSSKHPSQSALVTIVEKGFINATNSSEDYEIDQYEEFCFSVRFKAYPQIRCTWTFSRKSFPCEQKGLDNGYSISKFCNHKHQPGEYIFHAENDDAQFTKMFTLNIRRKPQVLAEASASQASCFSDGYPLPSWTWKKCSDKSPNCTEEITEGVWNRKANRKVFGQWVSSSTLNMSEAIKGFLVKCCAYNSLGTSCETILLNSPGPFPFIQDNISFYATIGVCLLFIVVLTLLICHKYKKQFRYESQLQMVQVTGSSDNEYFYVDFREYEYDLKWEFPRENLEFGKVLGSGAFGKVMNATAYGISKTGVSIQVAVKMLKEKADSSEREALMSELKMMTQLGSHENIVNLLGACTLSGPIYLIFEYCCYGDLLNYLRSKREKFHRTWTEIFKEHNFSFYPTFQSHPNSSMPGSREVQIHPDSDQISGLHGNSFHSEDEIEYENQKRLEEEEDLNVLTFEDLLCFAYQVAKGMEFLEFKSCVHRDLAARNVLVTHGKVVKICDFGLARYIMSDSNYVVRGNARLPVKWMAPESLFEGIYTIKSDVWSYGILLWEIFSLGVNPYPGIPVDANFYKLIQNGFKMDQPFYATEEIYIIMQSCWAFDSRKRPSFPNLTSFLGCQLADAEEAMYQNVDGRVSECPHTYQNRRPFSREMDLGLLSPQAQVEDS

Flt4(h) = target: T5, Flt4(h) (Homo sapiens, UniProt P35916); assay: Kinase panel
T5 construct: purchased Millipore KinaseProfiler

HIPK1(h) = target: T6, HIPK1(h) (Homo sapiens, UniProt Q86Z02); assay: Kinase panel
T6 construct: purchased Millipore KinaseProfiler

JNK3(h) = target: T7, JNK3(h) (Homo sapiens, UniProt P53779); assay: Kinase panel
T7 construct: purchased Millipore KinaseProfiler

MAPKAP-K2(h) = target: T8, MAPKAP-K2(h) (Homo sapiens, UniProt P49137); assay: Kinase panel
T8 construct: purchased Millipore KinaseProfiler

NLK(h) = target: T9, NLK(h) (Homo sapiens, UniProt Q9UBE8); assay: Kinase panel
T9 construct: purchased Millipore KinaseProfiler
T9 sequence (Q9UBE8 1-527): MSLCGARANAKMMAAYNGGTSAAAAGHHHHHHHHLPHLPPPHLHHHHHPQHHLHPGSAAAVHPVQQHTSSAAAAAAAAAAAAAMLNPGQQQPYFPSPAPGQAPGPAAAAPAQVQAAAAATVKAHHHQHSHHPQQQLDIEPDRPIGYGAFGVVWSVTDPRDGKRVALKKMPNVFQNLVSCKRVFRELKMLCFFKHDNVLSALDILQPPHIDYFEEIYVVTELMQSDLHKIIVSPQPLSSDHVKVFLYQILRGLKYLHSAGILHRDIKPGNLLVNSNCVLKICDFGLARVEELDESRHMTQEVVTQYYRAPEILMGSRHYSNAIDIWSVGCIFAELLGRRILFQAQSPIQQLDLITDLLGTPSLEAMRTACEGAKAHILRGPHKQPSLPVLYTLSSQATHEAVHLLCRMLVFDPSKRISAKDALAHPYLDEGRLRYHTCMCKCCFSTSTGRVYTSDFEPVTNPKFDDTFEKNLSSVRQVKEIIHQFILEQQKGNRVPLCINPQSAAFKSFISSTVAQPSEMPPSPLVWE

ROCK-I(h) = target: T10, ROCK-I(h) (Homo sapiens, UniProt Q13464); assay: Kinase panel
T10 construct: purchased Millipore KinaseProfiler

PKCθ = PKCθ (Homo sapiens, UniProt Q04759); assay: Kinase IC50 assay

T2 sequence (P21802 22-821): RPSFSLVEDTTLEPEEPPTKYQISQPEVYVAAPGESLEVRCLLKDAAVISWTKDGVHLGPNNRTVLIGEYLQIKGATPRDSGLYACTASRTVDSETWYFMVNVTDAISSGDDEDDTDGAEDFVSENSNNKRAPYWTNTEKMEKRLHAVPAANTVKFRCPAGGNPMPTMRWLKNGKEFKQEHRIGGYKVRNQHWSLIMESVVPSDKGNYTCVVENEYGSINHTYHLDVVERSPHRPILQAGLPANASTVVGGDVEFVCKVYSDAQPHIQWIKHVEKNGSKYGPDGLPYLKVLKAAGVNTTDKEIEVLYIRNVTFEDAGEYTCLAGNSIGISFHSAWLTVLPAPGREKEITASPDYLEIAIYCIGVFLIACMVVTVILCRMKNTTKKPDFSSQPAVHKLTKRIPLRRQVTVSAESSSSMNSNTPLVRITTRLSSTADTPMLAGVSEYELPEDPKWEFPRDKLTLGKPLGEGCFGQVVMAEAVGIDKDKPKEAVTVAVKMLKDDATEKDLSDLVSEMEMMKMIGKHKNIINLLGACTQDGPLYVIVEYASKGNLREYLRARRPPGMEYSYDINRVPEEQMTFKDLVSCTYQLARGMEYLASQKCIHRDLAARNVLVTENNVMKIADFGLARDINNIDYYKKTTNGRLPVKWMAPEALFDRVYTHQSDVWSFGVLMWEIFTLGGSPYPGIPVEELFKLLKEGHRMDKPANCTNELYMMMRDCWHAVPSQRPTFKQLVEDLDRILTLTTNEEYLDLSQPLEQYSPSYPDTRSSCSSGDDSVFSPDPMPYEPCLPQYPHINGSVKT
T3 sequence (P17948 27-1338): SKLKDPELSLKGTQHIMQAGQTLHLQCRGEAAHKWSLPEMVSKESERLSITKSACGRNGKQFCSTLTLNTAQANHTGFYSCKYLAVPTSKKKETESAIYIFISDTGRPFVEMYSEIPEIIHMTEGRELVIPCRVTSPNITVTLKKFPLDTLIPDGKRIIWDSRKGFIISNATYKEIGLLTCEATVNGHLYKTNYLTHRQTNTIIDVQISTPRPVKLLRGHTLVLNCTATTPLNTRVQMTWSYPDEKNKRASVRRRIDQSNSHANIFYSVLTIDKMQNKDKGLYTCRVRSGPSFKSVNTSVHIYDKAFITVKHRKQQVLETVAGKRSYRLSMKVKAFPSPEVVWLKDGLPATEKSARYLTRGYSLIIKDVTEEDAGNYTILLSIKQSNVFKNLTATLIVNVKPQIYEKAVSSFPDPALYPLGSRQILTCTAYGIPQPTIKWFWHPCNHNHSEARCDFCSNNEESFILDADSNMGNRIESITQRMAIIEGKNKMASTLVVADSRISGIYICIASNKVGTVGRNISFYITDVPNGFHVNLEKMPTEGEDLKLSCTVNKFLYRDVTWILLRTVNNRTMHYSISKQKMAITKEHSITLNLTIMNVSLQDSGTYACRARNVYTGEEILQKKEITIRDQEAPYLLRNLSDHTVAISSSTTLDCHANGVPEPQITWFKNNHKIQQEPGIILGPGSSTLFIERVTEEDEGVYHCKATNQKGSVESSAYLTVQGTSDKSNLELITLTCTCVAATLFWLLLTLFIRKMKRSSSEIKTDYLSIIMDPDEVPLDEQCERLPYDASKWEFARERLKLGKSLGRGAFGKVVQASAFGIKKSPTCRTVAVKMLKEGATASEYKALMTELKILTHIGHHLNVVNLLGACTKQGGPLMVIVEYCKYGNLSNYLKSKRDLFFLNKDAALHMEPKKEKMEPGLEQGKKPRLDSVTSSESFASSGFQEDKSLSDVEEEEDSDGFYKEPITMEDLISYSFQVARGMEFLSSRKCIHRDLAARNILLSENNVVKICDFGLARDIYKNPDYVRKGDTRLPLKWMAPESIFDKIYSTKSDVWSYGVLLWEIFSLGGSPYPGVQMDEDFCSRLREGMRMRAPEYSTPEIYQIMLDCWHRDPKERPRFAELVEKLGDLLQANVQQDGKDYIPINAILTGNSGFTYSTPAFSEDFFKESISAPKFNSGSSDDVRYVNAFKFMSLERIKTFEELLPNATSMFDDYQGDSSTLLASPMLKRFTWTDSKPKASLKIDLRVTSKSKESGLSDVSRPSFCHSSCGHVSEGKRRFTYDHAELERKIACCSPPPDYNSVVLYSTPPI
T10 sequence (Q13464 whole entry): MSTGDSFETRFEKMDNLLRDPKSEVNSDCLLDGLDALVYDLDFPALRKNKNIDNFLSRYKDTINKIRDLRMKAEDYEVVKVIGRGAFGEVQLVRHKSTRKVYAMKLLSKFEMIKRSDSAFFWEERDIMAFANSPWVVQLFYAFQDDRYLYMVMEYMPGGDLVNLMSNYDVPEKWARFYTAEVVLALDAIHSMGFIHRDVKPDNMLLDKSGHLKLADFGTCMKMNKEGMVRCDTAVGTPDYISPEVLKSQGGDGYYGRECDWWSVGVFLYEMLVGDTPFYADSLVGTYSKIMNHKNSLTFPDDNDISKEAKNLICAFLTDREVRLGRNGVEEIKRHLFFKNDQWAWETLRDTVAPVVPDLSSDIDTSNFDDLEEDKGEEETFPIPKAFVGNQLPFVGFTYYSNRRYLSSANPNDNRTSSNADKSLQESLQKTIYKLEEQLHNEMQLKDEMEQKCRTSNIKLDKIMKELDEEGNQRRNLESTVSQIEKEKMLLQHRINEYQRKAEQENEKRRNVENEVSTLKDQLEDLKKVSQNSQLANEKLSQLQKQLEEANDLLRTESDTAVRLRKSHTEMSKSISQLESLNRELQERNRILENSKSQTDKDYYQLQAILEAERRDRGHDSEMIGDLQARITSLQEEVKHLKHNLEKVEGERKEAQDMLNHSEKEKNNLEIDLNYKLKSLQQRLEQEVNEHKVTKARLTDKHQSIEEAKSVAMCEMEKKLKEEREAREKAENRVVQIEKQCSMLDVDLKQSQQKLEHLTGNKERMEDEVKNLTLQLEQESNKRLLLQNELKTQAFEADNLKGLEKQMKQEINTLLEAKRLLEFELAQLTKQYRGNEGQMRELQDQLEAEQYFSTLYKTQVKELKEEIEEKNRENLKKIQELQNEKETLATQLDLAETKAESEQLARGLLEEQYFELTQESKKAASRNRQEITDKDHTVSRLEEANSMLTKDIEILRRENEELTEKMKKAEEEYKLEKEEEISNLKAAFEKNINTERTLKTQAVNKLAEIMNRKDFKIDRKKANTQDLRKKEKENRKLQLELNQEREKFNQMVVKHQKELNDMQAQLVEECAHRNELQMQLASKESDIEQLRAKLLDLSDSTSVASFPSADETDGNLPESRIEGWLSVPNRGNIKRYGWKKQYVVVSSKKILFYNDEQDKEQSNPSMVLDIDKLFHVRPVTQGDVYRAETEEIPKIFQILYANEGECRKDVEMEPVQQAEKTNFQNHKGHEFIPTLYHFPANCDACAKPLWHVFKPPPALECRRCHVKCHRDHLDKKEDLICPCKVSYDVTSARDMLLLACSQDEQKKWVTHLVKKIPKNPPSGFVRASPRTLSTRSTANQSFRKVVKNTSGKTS
T1 sequence (Q9HCP0 whole entry): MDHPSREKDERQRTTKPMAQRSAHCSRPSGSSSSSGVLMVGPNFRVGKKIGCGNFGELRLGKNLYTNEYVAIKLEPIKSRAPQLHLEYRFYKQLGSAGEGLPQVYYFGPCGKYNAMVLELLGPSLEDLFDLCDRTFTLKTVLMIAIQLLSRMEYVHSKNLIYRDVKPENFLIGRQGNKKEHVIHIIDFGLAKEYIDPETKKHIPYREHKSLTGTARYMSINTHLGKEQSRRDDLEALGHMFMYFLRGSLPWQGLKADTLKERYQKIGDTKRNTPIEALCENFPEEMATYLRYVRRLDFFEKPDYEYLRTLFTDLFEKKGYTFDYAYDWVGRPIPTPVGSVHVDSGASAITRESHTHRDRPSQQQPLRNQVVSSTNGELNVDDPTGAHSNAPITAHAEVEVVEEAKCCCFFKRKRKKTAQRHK
T7 sequence (P53779 whole entry): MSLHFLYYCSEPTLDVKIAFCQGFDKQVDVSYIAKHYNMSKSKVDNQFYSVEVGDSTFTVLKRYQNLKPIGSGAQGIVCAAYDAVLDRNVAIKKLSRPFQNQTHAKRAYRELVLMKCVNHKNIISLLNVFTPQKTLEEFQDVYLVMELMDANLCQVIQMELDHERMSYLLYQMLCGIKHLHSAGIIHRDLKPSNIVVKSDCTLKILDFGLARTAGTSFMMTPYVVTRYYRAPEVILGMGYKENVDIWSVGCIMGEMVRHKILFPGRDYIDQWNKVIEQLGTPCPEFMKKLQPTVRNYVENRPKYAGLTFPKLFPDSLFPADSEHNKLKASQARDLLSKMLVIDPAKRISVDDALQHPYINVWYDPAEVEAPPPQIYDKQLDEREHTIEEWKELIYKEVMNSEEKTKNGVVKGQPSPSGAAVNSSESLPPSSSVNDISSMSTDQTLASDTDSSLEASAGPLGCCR
T8 sequence (P49137 whole entry): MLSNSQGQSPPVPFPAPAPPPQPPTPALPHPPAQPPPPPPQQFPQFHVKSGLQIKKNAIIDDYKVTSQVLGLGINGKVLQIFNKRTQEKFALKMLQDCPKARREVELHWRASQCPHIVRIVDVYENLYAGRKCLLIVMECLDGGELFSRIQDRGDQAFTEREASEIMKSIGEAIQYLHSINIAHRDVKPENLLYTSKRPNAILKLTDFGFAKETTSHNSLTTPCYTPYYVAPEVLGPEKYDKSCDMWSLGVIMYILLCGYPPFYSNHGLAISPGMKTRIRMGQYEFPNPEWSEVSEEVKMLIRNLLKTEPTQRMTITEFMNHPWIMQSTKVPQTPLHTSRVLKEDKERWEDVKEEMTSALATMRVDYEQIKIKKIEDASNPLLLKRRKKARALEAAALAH

Question: Which results are given for Cn1ncc(Cl)c1-c1cc(C(=O)N[C@H](CN)Cc2ccc(F)c(F)c2)oc1Cl [GSK2141795]?
Answer: inhibition at 0.5 µM (CK1γ1(h); 0.5 µM, read-out: % Inhibition): -6%; inhibition at 10 µM (CK1γ1(h); 10 µM, read-out: % Inhibition): 39%; inhibition at 0.5 µM (FGFR2(h); 0.5 µM, read-out: % Inhibition): -8%; inhibition at 10 µM (FGFR2(h); 10 µM, read-out: % Inhibition): 2%; inhibition at 0.5 µM (Flt1(h); 0.5 µM, read-out: % Inhibition): -4%; inhibition at 10 µM (Flt1(h); 10 µM, read-out: % Inhibition): 21%; inhibition at 0.5 µM (Flt3(D835Y)(h); 0.5 µM, read-out: % Inhibition): 6%; inhibition at 10 µM (Flt3(D835Y)(h); 10 µM, read-out: % Inhibition): 81%; inhibition at 0.5 µM (Flt4(h); 0.5 µM, read-out: % Inhibition): -6%; inhibition at 10 µM (Flt4(h); 10 µM, read-out: % Inhibition): 23%; inhibition at 0.5 µM (HIPK1(h); 0.5 µM, read-out: % Inhibition): 2%; inhibition at 10 µM (HIPK1(h); 10 µM, read-out: % Inhibition): 62%; inhibition at 0.5 µM (JNK3(h); 0.5 µM, read-out: % Inhibition): -5%; inhibition at 10 µM (JNK3(h); 10 µM, read-out: % Inhibition): 3%; inhibition at 0.5 µM (MAPKAP-K2(h); 0.5 µM, read-out: % Inhibition): -6%; inhibition at 10 µM (MAPKAP-K2(h); 10 µM, read-out: % Inhibition): -12%; inhibition at 0.5 µM (NLK(h); 0.5 µM, read-out: % Inhibition): 4%; inhibition at 10 µM (NLK(h); 10 µM, read-out: % Inhibition): 46%; inhibition at 0.5 µM (ROCK-I(h); 0.5 µM, read-out: % Inhibition): 18%; inhibition at 10 µM (ROCK-I(h); 10 µM, read-out: % Inhibition): 71%; IC50 (PKCθ): 64 nM

Question: How did the inhibition at 0.5 µM (CK1γ1(h)) turn out when Cn1ncc(Cl)c1-c1cc(C(=O)N[C@H](CN)Cc2cccc(F)c2)sc1Cl [GSK2110183] was run?
Answer: The inhibition at 0.5 µM was -1%.

Question: What about the inhibition at 10 µM (CK1γ1(h)) of the same compound?
Answer: The inhibition at 10 µM was 20%.

Question: What about the inhibition at 0.5 µM (FGFR2(h)) of the same compound?
Answer: Its inhibition at 0.5 µM is 0%.

Question: What about the inhibition at 10 µM (FGFR2(h)) of the same compound?
Answer: Its inhibition at 10 µM is -2%.

Question: And the inhibition at 0.5 µM (Flt1(h))?
Answer: The inhibition at 0.5 µM was -35%.

Question: And the inhibition at 10 µM (Flt1(h))?
Answer: The inhibition at 10 µM was -28%.

Question: What about the inhibition at 0.5 µM (Flt3(D835Y)(h)) of the same compound?
Answer: Its inhibition at 0.5 µM is 12%.

Question: What about the inhibition at 10 µM (Flt3(D835Y)(h)) of the same compound?
Answer: The inhibition at 10 µM was 71%.

Question: And the inhibition at 0.5 µM (Flt4(h))?
Answer: Its inhibition at 0.5 µM is 4%.

Question: What about the inhibition at 10 µM (Flt4(h)) of the same compound?
Answer: Its inhibition at 10 µM is 21%.

Question: What about the inhibition at 0.5 µM (HIPK1(h)) of the same compound?
Answer: Its inhibition at 0.5 µM is 9%.

Question: And the inhibition at 10 µM (HIPK1(h))?
Answer: Its inhibition at 10 µM is 72%.

Question: What about the inhibition at 0.5 µM (JNK3(h)) of the same compound?
Answer: The inhibition at 0.5 µM was -5%.

Question: And the inhibition at 10 µM (JNK3(h))?
Answer: The inhibition at 10 µM was 6%.

Question: And the inhibition at 0.5 µM (MAPKAP-K2(h))?
Answer: Its inhibition at 0.5 µM is -11%.

Question: And the inhibition at 10 µM (MAPKAP-K2(h))?
Answer: The inhibition at 10 µM was 4%.

Question: And the inhibition at 0.5 µM (NLK(h))?
Answer: Its inhibition at 0.5 µM is -8%.

Question: What about the inhibition at 10 µM (NLK(h)) of the same compound?
Answer: The inhibition at 10 µM was 32%.

Question: And the inhibition at 0.5 µM (ROCK-I(h))?
Answer: Its inhibition at 0.5 µM is 12%.

Question: And the inhibition at 10 µM (ROCK-I(h))?
Answer: The inhibition at 10 µM was 77%.

Question: And the IC50 (PKCθ)?
Answer: The IC50 was 510 nM.
